{"source": "patent US20260365662A1", "about": "“ISOANDROGRAPHOLIDE ANALOGS AND METHOD FOR TREATMENT USING THE SAME” (Enveda Therapeutics, Inc., priority 2023, published 2026)", "assay_type_in_all_cases": "in vivo", "key": {"[1]": {"test_system": "female BALB/c mouse", "assay": "MC-903 induced atopic dermatitis model, therapeutic mode, vs oral JAK-i (Example 15)", "conditions": "twice a day; for dermatitis severity scores: vs MC-903 vehicle control", "procedure": "(§1) Experimental details: Preclinical animal model of atopic dermatitis was developed by MC-903, a vitamin-D analogue. In the current study, the test item Compound 2 was screened in therapeutic mode, to evaluate its efficacy in MC-903 induced AD model. 2 nmol of MC-903 was topically applied to 8-10 weeks old female BALB/c mouse from G2-G8 group at a volume of 50 μl/mouse on back skin on every alternate day for 14 days to induced disease. For the G1 group, (Normal+ethanol control) the same volume of ethanol that was used to solubilize MC-903 was applied. Clobetasol (0.05%, 15 mg/mouse) was applied topically once a day to G3 group animals, Upadacitinib was dosed oral twice a day at 2, 6 & 20 mg/kg to G4, G5 & G6 respectively. Compound 2 was administered twice a day to respective treatment groups (G7-G10) for 14 days. On the day of MC-903 administration, test compounds were dosed one hour prior to MC-903 insult. Clinical scores to assess the disease intensity were measured from visual examination for erythema, scaling and back skin thickness using dial caliper. All the scores were carried by blinded observers to treatment groups. Disease severity was assessed by dermatitis severity scores."}, "[2]": {"test_system": "female BALB/c mouse", "assay": "Hapten-induced atopic dermatitis model (Example 13)", "conditions": "for itch / number of scratches in scratch test: 10 minutes, day 13, four hours after last challenge; for immune cell infiltration: histopathology; for immune cell infiltration / epidermal thickness / histopathological changes / histopathology score: back skin; for epidermal thickness / histopathological changes / histopathology score / IL-4 expression: prophylactic; for IL-4 expression / dermatitis severity scores: vs hapten vehicle control; for dermatitis severity scores: twice a day, 14 days", "procedure": "Experimental details: Preclinical animal model of atopic dermatitis was developed by [COMPOUND LEFT OUT] [COMPOUND LEFT OUT], a Hapten. In the current study, the test item Compound 2 was screened to evaluate its efficacy in [COMPOUND LEFT OUT] induced AD model. 0.15% of [COMPOUND LEFT OUT] was topically applied to 7-8 weeks old female BALB/c mouse from G2-G7 group at a volume of 100 μl/mouse on back skin once in 3 days to induced disease. For the G1 group, (Vehicle control) the same volume of acetone and olive oil (3:1) that was used to solubilize [COMPOUND LEFT OUT] was applied. Dexamethasone (5 mg/kg, p.o, qd) was dosed per oral once a day to G3 group animals. Compound 2 was administered twice a day to respective treatment groups (G4-G6) for 14 days. On the day of [COMPOUND LEFT OUT] administration, test compounds were dosed one hour prior to [COMPOUND LEFT OUT] insult. Clinical scores to assess the disease intensity were measured from visual examination for erythema, scaling, excoriation, and back skin thickness using dial caliper. All the scores were carried by blinded observers to treatment groups. Cumulative dermatitis severity scores were calculated by adding up the individual scores of erythema, scaling, thickness & excoriation. On day-13 of the study, four hours after the last [COMPOUND LEFT OUT] challenge, scratching behavior was recorded using a web camera in acrylic observational chambers. The number of scratches were measured for 10 minutes. Later, all the animals were terminally bled under mild anesthesia followed by humane sacrifice and back skin tissue was dissected. Required skin tissue samples were collected in fixative and part of the tissue was flash-frozen in liquid nitrogen and stored at −80 °C. Collected tissue samples were processed and used for biomarker analysis using gene and protein expression analysis by qPCR & ELISA, pharmacokinetic analysis by LC-MS and histopathology studies."}, "[3]": {"test_system": "female BALB/c mouse", "assay": "MC-903 induced atopic dermatitis model, therapeutic mode (Example 14)", "conditions": "twice a day, vs MC-903 vehicle control", "procedure": "as §1, with “animals and Ruxolitinib (1.5%, 20 mg/mouse)” for “animals, Upadacitinib”, “applied topically” for “dosed oral”, “day” for “day at 2, 6 & 20 mg/kg”, “G4 group animals.” for “G4, G5 & G6 respectively.”, “(G4-G8)” for “(G7-G10)”, “erythema & dermatitis scaling.” for “severity scores.”"}, "[4]": {"test_system": "female BALB/c mouse", "assay": "MC-903 induced atopic dermatitis model, prophylactic (Example 12)", "conditions": "for immune cell infiltration: histopathology, back skin; for IL-31 expression: itch marker", "procedure": "Experimental details: Preclinical animal model of atopic dermatitis was developed by MC-903, a vitamin-D analogue. In the current study, the test item Compound 2 was screened to evaluate its efficacy in MC-903 induced AD model. 2 nmol of MC-903 was topically applied to 8-10 weeks old female BALB/c mouse from G2-G7 group at a volume of 50 μl/mouse on back skin on every alternate day for 14 days to induced disease. For the G1 group, (Normal+ethanol control) the same volume of ethanol that was used to solubilize MC-903 was applied. Clobetasol (0.05%, 20 mg) was applied topically once a day to G3 group animals. Compound 2 was administered twice a day to respective treatment groups (G4-G7) for 14 days. On the day of MC-903 administration, test compounds were dosed one hour prior to MC-903 insult. Clinical scores to assess the disease intensity were measured from visual examination for erythema, scaling and back skin thickness using dial caliper. All the scores were carried by blinded observers to treatment groups. Cumulative dermatitis severity scores were calculated by adding up the individual scores of erythema, scaling & thickness. On day-14 of the study, all animals were terminally bled under mild anesthesia followed by humane sacrifice and back skin tissue was dissected. Required skin tissue samples were collected in fixative and part of the tissue was flash-frozen in liquid nitrogen and stored at −80 °C. Collected tissue samples were processed and used for biomarker analysis using gene and protein expression analysis by qPCR & ELISA, pharmacokinetic analysis by LC-MS and histopathology studies."}, "[5]": {"conditions": "twice a day, 14 days, vs MC-903 vehicle control"}}, "note": "“Also recorded” adds a separate entry of the source."}
{"smiles": "C[C@@]12CCC(=O)N[C@@](C)(CO)[C@H]1CC[C@@]1(C)O[C@H](C3=CCOC3=O)C[C@@H]21", "note": "[Compound 2, (2S,3aR,5aS,6R,10aR,10bS)-6-(hydroxymethyl)-3a,6,10a-trimethyl-2-(2-oxo-2,5-dihydrofuran-3-yl) dodecahydro-8H-benzofuro[5,4-c]azepin-8-one]", "values": [{"measurement": "efficacy compared with oral JAK-i", "setting": "[1]", "value": "Efficacy On-Par with Oral JAK-i"}, {"measurement": "dermatitis severity scores", "setting": "[1]", "value": "significant dose dependent decrease in dermatitis severity scores on-par with oral JAK-i"}, {"measurement": "dermatitis severity scores", "setting": "[1]; listed as compound 2", "value": "significantly reduces dermatitis severity scores on-par with oral JAK-i"}, {"measurement": "itch / number of scratches in scratch test", "setting": "[2]", "value": "reduced"}, {"measurement": "itch / number of scratches in scratch test", "setting": "[2]; listed as compound 2", "value": "reduces itch comparably to current first line therapy"}, {"measurement": "immune cell infiltration", "setting": "[2]", "value": "significantly reduced"}, {"measurement": "immune cell infiltration", "setting": "[2]; listed as compound 2", "value": "reduces immune cell infiltration"}, {"measurement": "epidermal thickness", "setting": "[2]", "value": "significantly reduced"}, {"measurement": "histopathological changes / histopathology score", "setting": "[2]", "value": "significantly reduced"}, {"measurement": "epidermal thickness", "setting": "[2]; listed as compound 2", "value": "significantly reduces"}, {"measurement": "histopathological changes / histopathology score", "setting": "[2]; listed as compound 2", "value": "ameliorates; also recorded: significantly reduces"}, {"measurement": "IL-4 expression", "setting": "[2]", "value": "reduced"}, {"measurement": "IL-4 expression", "setting": "[2]; listed as compound 2", "value": "impacts IL-4 expression"}, {"measurement": "dermatitis severity scores", "setting": "[2]", "value": "Significantly Reduces; also recorded: dose dependent decrease"}, {"measurement": "dermatitis severity scores", "setting": "[2]; listed as compound 2", "value": "dose dependent decrease"}, {"measurement": "dermatitis erythema scores", "setting": "[3]", "value": "dose dependent decrease"}, {"measurement": "dermatitis scaling scores", "setting": "[3]", "value": "dose dependent decrease"}, {"measurement": "dermatitis erythema scores", "setting": "[3]; listed as compound 2", "value": "significantly reduces"}, {"measurement": "dermatitis scaling scores", "setting": "[3]; listed as compound 2", "value": "significantly reduces"}, {"measurement": "neutrophil infiltration", "setting": "[4]; FIG. 12C", "value": "robustly reduces"}, {"measurement": "early barrier alarmins in skin", "setting": "[4]; FIG. 12G", "value": "reduces early barrier alarmins"}, {"measurement": "tissue cytokine expression", "setting": "[4]; FIG. 12H", "value": "impacts tissue cytokine expression"}, {"measurement": "improvement of MC-903-induced atopic dermatitis", "setting": "[4]; compared with high-potency topical corticosteroids", "value": "comparable to high-potency topical corticosteroids"}, {"measurement": "immune cell infiltration", "setting": "[4]", "value": "significantly reduced"}, {"measurement": "immune cell infiltration", "setting": "[4]; listed as compound 2", "value": "reduced dose-dependent immune cell infiltration"}, {"measurement": "histopathological changes and final histopathology scores", "setting": "[4]; hyperkeratosis, parakeratosis, lengthening and clubbing of rete ridges, vs MC-903 vehicle control", "value": "significantly reduced"}, {"measurement": "IL-31 expression", "setting": "[4]; prophylactic, back skin tissue", "value": "significantly reduced"}, {"measurement": "IL-31 expression", "setting": "[4]; prophylactic, back skin tissue, listed as compound 2", "value": "decreases IL-31 expression"}, {"measurement": "NGAL levels", "setting": "[4]; neutrophil marker, back skin tissue", "value": "significantly reduced"}, {"measurement": "NGAL levels", "setting": "[4]; neutrophil marker, back skin tissue, listed as compound 2", "value": "significantly reduces NGAL levels"}, {"measurement": "Lipocalin-2 expression", "setting": "[4]; neutrophil marker, prophylactic, back skin tissue", "value": "significantly reduced"}, {"measurement": "IL-4 expression", "setting": "[4]; prophylactic, back skin tissue", "value": "significantly reduced"}, {"measurement": "IL-13 expression", "setting": "[4]; prophylactic, back skin tissue", "value": "significantly reduced"}, {"measurement": "Krt6a expression", "setting": "[4]; prophylactic, back skin tissue", "value": "significantly reduced"}, {"measurement": "Tissue TSLP expression", "setting": "[4]; prophylactic, back skin tissue", "value": "significantly reduced"}, {"measurement": "dermatitis severity scores", "setting": "[4]; [5]", "value": "dose dependent decrease"}, {"measurement": "epidermal thickness", "setting": "[4]; [5]", "value": "significantly reduced"}, {"measurement": "epidermal thickness", "setting": "[4]; twice a day, 14 days, vs MC-903 vehicle control, listed as compound 2", "value": "robustly reduces epidermal thickness"}]}
